In ChEMBL document CHEMBL1201862, “PubChem BioAssay data set” (2004):
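Test compounds were applied to cells in 96-well plates for 48 hours at 5 doses. GI50 is the concentration that inhibits growth by half.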 Active and inactive are the calls of the source. Cut-off read from the data, not from the text of the source: active = GI50 up to about 1.1 µM and inactive = higher.

What was measured:
Assay in all cases: NCI-60 cell line screen, 48 h
COLO 205 = system: COLO 205
LOX IMVI = system: LOX IMVI
SK-MEL-5 = system: SK-MEL-5
SF-268 = system: SF-268
U-251 = system: U-251
SN12C = system: SN12C
RPMI-8226 = system: RPMI-8226
786-0 = system: 786-0
CCRF-CEM = system: CCRF-CEM
A549 = system: A549
T47D = system: T47D
OVCAR-4 = system: OVCAR-4
UACC-62 = system: UACC-62
SF-295 = system: SF-295
MOLT-4 = system: MOLT-4
MDA-MB-231 = system: MDA-MB-231
EKVX = system: EKVX
OVCAR-8 = system: OVCAR-8
HT-29 = system: HT-29
SNB-19 = system: SNB-19
MDA-MB-435 = system: MDA-MB-435
UO-31 = system: UO-31
SK-MEL-28 = system: SK-MEL-28
SK-OV-3 = system: SK-OV-3
TK-10 = system: TK-10
IGROV-1 = system: IGROV-1
KM12 = system: KM12
HCT-15 = system: HCT-15
A498 = system: A498
MDA-N = system: MDA-N
HCC 2998 = system: HCC 2998
MCF7 = system: MCF7
HCT-116 = system: HCT-116
NCI/ADR-RES = system: NCI/ADR-RES
Hs-578T = system: Hs-578T
Malme-3M = system: Malme-3M
SNB-75 = system: SNB-75
CAKI-1 = system: CAKI-1
HL-60 = system: HL-60
DU-145 = system: DU-145
OVCAR-5 = system: OVCAR-5
SW-620 = system: SW-620
PC-3 = system: PC-3
M14 = system: M14
K562 = system: K562
HOP-92 = system: HOP-92
SK-MEL-2 = system: SK-MEL-2
NCI-H226 = system: NCI-H226
OVCAR-3 = system: OVCAR-3
ACHN = system: ACHN
UACC-257 = system: UACC-257
BT-549 = system: BT-549
HOP-62 = system: HOP-62
NCI-H23 = system: NCI-H23

## NNS(=O)(=O)c1ccc(/C=C2\NC(=O)NC2=O)cc1
COLO 205
  GI50: > 100 µM (inactive)
LOX IMVI
  GI50: > 100 µM (inactive)
SK-MEL-5
  GI50: > 100 µM (inactive)
SF-268
  GI50: > 100 µM (inactive)
U-251
  GI50: > 100 µM (inactive)
SN12C
  GI50: > 100 µM (inactive)
RPMI-8226
  GI50: > 100 µM (inactive)
786-0
  GI50: > 100 µM (inactive)
CCRF-CEM
  GI50: > 100 µM (inactive)
A549
  GI50: > 100 µM (inactive)
T47D
  GI50: > 100 µM (inactive)
OVCAR-4
  GI50: > 100 µM (inactive)
UACC-62
  GI50: > 100 µM (inactive)
SF-295
  GI50: > 100 µM (inactive)
MOLT-4
  GI50: > 100 µM (inactive)
MDA-MB-231
  GI50: > 100 µM (inactive)
EKVX
  GI50: > 100 µM (inactive)
OVCAR-8
  GI50: > 100 µM (inactive)
HT-29
  GI50: > 100 µM (inactive)
SNB-19
  GI50: > 100 µM (inactive)
MDA-MB-435
  GI50: > 100 µM (inactive)
UO-31
  GI50: > 100 µM (inactive)
SK-MEL-28
  GI50: > 100 µM (inactive)
SK-OV-3
  GI50: > 100 µM (inactive)
TK-10
  GI50: > 100 µM (inactive)
IGROV-1
  GI50: > 100 µM (inactive)
KM12
  GI50: > 100 µM (inactive)
HCT-15
  GI50: > 100 µM
A498
  GI50: > 100 µM (inactive)
MDA-N
  GI50: > 100 µM (inactive)
HCC 2998
  GI50: > 100 µM (inactive)
MCF7
  GI50: > 100 µM (inactive)
HCT-116
  GI50: > 100 µM (inactive)
NCI/ADR-RES
  GI50: > 100 µM (inactive)
Hs-578T
  GI50: > 100 µM (inactive)
Malme-3M
  GI50: > 100 µM (inactive)
SNB-75
  GI50: > 100 µM (inactive)
CAKI-1
  GI50: > 100 µM (inactive)
HL-60
  GI50: > 100 µM (inactive)
DU-145
  GI50: > 100 µM (inactive)
OVCAR-5
  GI50: 58.1 µM (inactive)
SW-620
  GI50: > 100 µM (inactive)
PC-3
  GI50: > 100 µM (inactive)
M14
  GI50: > 100 µM (inactive)
K562
  GI50: > 100 µM (inactive)
HOP-92
  GI50: > 100 µM (inactive)
SK-MEL-2
  GI50: 37.9 µM (inactive)
NCI-H226
  GI50: > 100 µM (inactive)
OVCAR-3
  GI50: > 100 µM (inactive)
ACHN
  GI50: > 100 µM (inactive)
UACC-257
  GI50: > 100 µM (inactive)
BT-549
  GI50: > 100 µM (inactive)
HOP-62
  GI50: > 100 µM (inactive)
NCI-H23
  GI50: > 100 µM (inactive)
